Test results: publication PMC10180520, “Phytochemical Analysis and Profiling of Antioxidants and Anticancer Compounds from Tephrosia purpurea (L.) subsp. apollinea Family Fabaceae” (Molecules, 2023)
≈ marks a conversion by molar mass, not a printed value. One block for each compound: values may come before it.

Key:
[1] = tested on: PC3; experiment: Light microscopy of treated cells, PC3; assay type: cell-based; settings: PC3, 250 µg/mL (Figure 8)
Description: (§1) Morphologies of cells treated with the various methanol T. purpurea subsp. apollinea extract concentrations were investigated under light microscopy at 10× objective lens, total magnification = 100×.

[2] = tested on: HeLa; experiment: Light microscopy of treated cells, HeLa; assay type: cell-based; settings: 250 µg/mL (Figure 8)
Description: as §1

[3] = tested on: T47D; experiment: Light microscopy of treated cells, T47D; assay type: cell-based; settings: 250 µg/mL (Figure 8)
Description: as §1

[4] = tested on: normal human fetal lung fibroblast (WI38); experiment: MTT assay, normal human fetal lung fibroblast (WI38); assay type: cell-based; settings: WI-38, WI38 normal cells, 24 h
Method: (§2) Breast cancer cell lines (MCF7), osteosarcoma (MG63), breast ductal carcinoma (T47D), leukemia (U937), as well as HeLa, PC3, and healthy pulmonary fibroblast were supplied by the tissue culture laboratory at Vacsera, Egypt. The culturing procedure was maintained sterile, utilizing a laminar airflow cabinet. The cells were cultured in Roswell Park Memorial Institute medium (RPMI 1640). The medium was provided with antibiotics (streptomycin and penicillin) as well as antifungal agents (amphotericin B) and L-glutamine. It was also supplemented with 10% heat-inactivated fetal bovine serum.
(§3) Cell viability was measured using a 3-(4,5-dimethylthiazol-2-yl)-2,5-diphenyl-2H-tetrazolium bromide (MTT) assay. The principle of the MTT assay is that through mitochondrial reduction, purple-colored crystals are produced from the yellowish MTT [80]. […]
(§4) Using a growth medium, serial dilutions of the dimethyl sulfoxide (DMSO)-solubilized extract were produced at concentrations of 31.25, 62.5, 125, 250, 500, and 1000 µg/mL [80]. […] A microplate reader was used to measure the optical density of the formazan solution at 560 nm, with values corrected using a background reference λ of 620 nm. […]
(§5) The IC50 profiles of methanol extract of T. purpurea subsp. apollinea and a positive control for cancer and healthy cell lines were determined with GraphPad Prism version 7 (GraphPad Software Inc., San Diego, CA, USA). […]

[5] = tested on: MG63; experiment: Light microscopy of treated cells, MG63; assay type: cell-based; settings: MG63, 250 µg/mL (Figure 8)
Description: as §1

[6] = tested on: osteosarcoma (MG63); experiment: MTT assay, osteosarcoma (MG63); assay type: cell-based
Method: as §2, §3, §4, §5

[7] = tested on: MCF7; experiment: Light microscopy of treated cells, MCF7; assay type: cell-based; settings: MCF7, 250 µg/mL (Figure 8)
Description: as §1

[8] = tested on: breast cancer (MCF7); experiment: MTT assay, breast cancer (MCF7); assay type: cell-based
Method: as §2, §3, §4, §5

[9] = tested on: leukemia (U937); experiment: MTT assay, leukemia (U937); assay type: cell-based
Method: as §2, §3, §4, §5

[10] = tested on: breast ductal carcinoma (T47D); experiment: MTT assay, breast ductal carcinoma (T47D); assay type: cell-based
Method: as §2, §3, §4, §5

[11] = tested on: prostate cancer (PC3); experiment: MTT assay, prostate cancer (PC3); assay type: cell-based
Method: as §2, §3, §4, §5

[12] = tested on: cervical cancer (HeLa); experiment: MTT assay, cervical cancer (HeLa); assay type: cell-based
Method: as §2, §3, §4, §5

[13] = ABTS radical scavenging assay; assay type: biochemical
Method: Distilled water was used to bring up a 50-mL volumetric flask to mark after dissolving 192 mg of 2,2′-azino-bis(3-ethylbenzothiazoline-6-sulfonic acid) (ABTS) in a small volume of water and transferring it to the flask, followed by addition of 1 mL of this solution to 17 μL 0.14 M K2S2O8, and incubation in darkness for 24 h. To prepare the final ABTS dilution for the T. purpurea subsp. apollinea extract, 1 mL of reaction mixture was added to 49 mL of methanol. Then, 0.190 mL of newly made ABTS solution was mixed with 0.010 mL of plant extract in a 96-well plate and kept in the dark for 30 min. Thereafter, a decrease in ABTS OD was read at 734 nm in a FluoStar Omega microplate reader. Trolox was used as an antioxidant standard. All the values were measured in triplicate.

[14] = DPPH radical scavenging assay; assay type: biochemical
Method: Each methanolic extract concentration (1 mL) was added to 3 mL of 0.1 mM DPPH solubilized in methanol, followed by shaking and placing it into a dark chamber for 30 min. When DPPH reacts with an H-donating antioxidant, it is scavenged, thereby resulting in a decrease in absorbance. The optical density of each concentration was measured at 517 nm in a UV-Vis spectrophotometer. Ascorbic acid was used as an antioxidant standard. All the values were measured in triplicate.

IC50 ([6]; Homo sapiens, MG-63, MG63, MTT, 24 h): 19 ± 0.3 µg/mL (≈ 35 µM)
IC50 ([8]; MCF7, MTT, 24 h): 37.4 ± 0.1 µg/mL (≈ 68.8 µM)
IC50 ([9]; Homo sapiens, U-937, U937, MTT, 24 h): 41.7 ± 0.9 µg/mL (≈ 76.7 µM)
IC50 ([10]; Homo sapiens, T47D, MTT, 24 h): 7 ± 0.1 µg/mL (≈ 12.9 µM)
IC50 ([11]; PC3, MTT, 24 h): 46.3 ± 0.2 µg/mL (≈ 85.2 µM)
IC50 ([12]; Homo sapiens, HeLa, MTT, 24 h): 41.9 ± 0.1 µg/mL (≈ 77.1 µM)
Structure (SMILES): COc1cccc2c1C(=O)c1c(O)c3c(c(O)c1C2=O)C[C@@](O)(C(=O)CO)C[C@@H]3O[C@H]1C[C@H](N)[C@H](O)[C@H](C)O1 [Doxorubicin]
cell morphology [1]: rounded and shrunk cells
cell morphology [2]: rounded and shrunk cells
cell morphology [3]: rounded and shrunk cells
IC50 [4]: 20.1 ± 0.1 µg/mL (≈ 37 µM)
cell morphology [5]: rounded and shrunk cells
SI (selectivity index) ([6]; IC50 for WI38 / IC50 for MG63): 1.0
cell morphology [7]: rounded and shrunk cells
SI (selectivity index) ([8]; IC50 for WI38 / IC50 for MCF7): 0.5
SI (selectivity index) ([9]; IC50 for WI38 / IC50 for U937): 0.4
SI (selectivity index) ([10]; IC50 for WI38 / IC50 for T47D): 2.8
SI (selectivity index) ([11]; IC50 for WI38 / IC50 for PC3): 0.4
SI (selectivity index) ([12]; IC50 for WI38 / IC50 for HeLa): 0.4

IC50 of ABTS radical scavenging ([13]; mean ± standard deviation): ^a IC50 = 2.9 ± 0.1 μg/mL
Structure (SMILES): Cc1c(C)c2c(c(C)c1O)CCC(C)(C(=O)O)O2 (centres unmarked) [Trolox]
ABTS Scavenging% ([13]; Conc. 0.6 µg/mL): 9.9 ± 0.3%
ABTS Scavenging% ([13]; Conc. 1.3 µg/mL): 18.6 ± 0.4%
ABTS Scavenging% ([13]; Conc. 3.8 µg/mL): 49.6 ± 2.6%
ABTS Scavenging% ([13]; Conc. 6.2 µg/mL): 83.6 ± 1.9%
ABTS Scavenging% ([13]; Conc. 8.8 µg/mL): 92.6 ± 0.2%

IC50 of DPPH radical scavenging ([14]; mean ± standard deviation): ^a IC50 = 4.8 ± 0.1 μg/mL
Structure (SMILES): O=C1O[C@H]([C@@H](O)CO)C(O)=C1O [Ascorbic Acid, Ascorbic acid]
DPPH Scavenging% ([14]; Conc. 1.95 µg/mL): 41.8 ± 0.5%
DPPH Scavenging% ([14]; Conc. 3.9 µg/mL): 45.9 ± 0.1%
DPPH Scavenging% ([14]; Conc. 7.8125 µg/mL): 56.2 ± 0.2%
DPPH Scavenging% ([14]; Conc. 15.625 µg/mL): 64.2 ± 0.3%
DPPH Scavenging% ([14]; Conc. 31.25 µg/mL): 71.2 ± 0.2%
DPPH Scavenging% ([14]; Conc. 62.5 µg/mL): 77.9 ± 0.3%
DPPH Scavenging% ([14]; Conc. 125 µg/mL): 86.4 ± 0.3%
DPPH Scavenging% ([14]; Conc. 250 µg/mL): 92.7 ± 0.2%
DPPH Scavenging% ([14]; Conc. 500 µg/mL): 94.5 ± 0.2%
DPPH Scavenging% ([14]; Conc. 1000 µg/mL): 97.1 ± 0.1%
